We go through two molecules from patent publication US20250188133A1, “CHIMERIC BACTERIOCINS AND METHOD FOR THE CONTROL OF PSEUDOMONAS” (priority 2022, published 2025).

For one assay, the system named is P. aeruginosa ATCC 27853. In words: murine lung colonization and treatment (CD1 mice). To be noted: 5 h post infection. In kind it is in vivo. The procedure:
CD1 male mice were supplied by Charles River (Margate, UK) and were specific pathogen free. Mice were 11 to 15 g on receipt at the facility and were allowed to acclimatize for at least 7 days.
P. aeruginosa ATCC 27853 was recovered from long-term storage (−80° C.) and cultured on cystine-lactose-electrolyte-deficient (CLED) agar at 37° C. under aerobic conditions for approximately 16-24 h. 20 ml of Mueller Hinton broth was inoculated with a single well isolated colony and cultured overnight at 37° C. with shaking at 300 rpm65. The overnight broth was diluted 1:100 in Mueller Hinton broth and 100 ml was cultured in a baffle flask for ˜6 h at 37° C. with shaking at 300 rpm until the broth OD was ˜0.6 (˜mid-exponential phase). 20 ml of culture was centrifuged at 2465 g for 10 minutes and washed in PBS. The pellet was suspended in PBS and the OD600 adjusted to 0.67 (˜2.6×10^8 CFU/ml). The study inoculum was prepared from this by appropriate dilution with PBS. The inoculum concentration was confirmed by quantitative culture on Pseudomonas Selective Agar (PSA). The inoculum concentration for the study was 1.47×10^7 CFU/ml (5.87×10^5 CFU/mouse).
Mice were infected under temporary inhaled 3% isoflurane anesthesia by intranasal (IN) instillation with 40 μl of the inoculum suspension split as 20 μl/nostril.
1 hour post infection 6 mice were sacrificed in order to evaluate the pre-treatment burden in lungs. Treatments were administered IN once at 1 h post infection (50 μl split to 25 μl/nares). Three treatment groups consisting of six mice each were administered S5-PmnH (2.5, 25 and 250 μg). The fourth group of mice (n=6) was administered 200 μg Tobramycin (40 mg/ml injection solution, Hospira UK Ltd, diluted 10 times). The study was terminated at 5 hours post infection for all animals. The clinical conditions and weights were assessed and animals were immediately euthanized using an overdose of pentobarbitone. Following confirmation of death, the lungs were excised and homogenized in ice cold sterile phosphate buffered saline using a Precellys bead beater. The homogenates were quantitatively cultured onto PSA agar and incubated at 37° C. for 24 hours before colonies were counted.

Another assay deals with P. aeruginosa ATCC 19660. Kind of assay: murine keratitis model, cytotoxic strain (C57BL/6 mice). The class given is in vivo. The procedure:
(§1) The inbred mice of C57BL/6 strain of both sexes in equivalent numbers were used for the research. 2-6 months old, adult female and adult male mice were purchased from the Vilnius University vivarium of laboratory animals. The animals throughout the period of the experiment were given standard chow and drinking water ad libitum. Animals were housed in the individual plastic cages in a 12 h light/dark cycle at 21-23° C. All regulated procedures on living animals were approved by The Lithuanian Ethics Committee of Biomedical Research (Protocol no. B1-442) and were carried out in accordance with the European Union legislation of OECD (directive 2010/63/EU). The experiments were carried out in Biological research center of Lithuanian University of Health Sciences.
(§2) For P. aeruginosa infection and keratitis induction the mice were anesthetized by Ketamine and Xylazine 90:9 mg/kg intraperitoneal injection. The cornea of the left eye of each mouse was visualized under a stereoscopic microscope, and three 1 mm scratches were made using a sterile 25 gauge needle. A 10 μL aliquot containing 4×10^6 cells of P. aeruginosa ATCC 19660 (cytotoxic strain) or PAO1 ATCC 15692 (invasive strain) was applied to the corneal surface. Depending on the experiment, the treatment was started 30 min or 6 h post infection. 10 μl aliquot containing 0.14 mg of tobramycin or 20 μg of S5-PmnH (both containing 0.5% hydroxypropyl methylcellulose (HPMC)) or PBS containing 0.5% HPMC was applied as one drop of substance to the each eye. HPMC is used as artificial tears and was used in order to thicken the tears film and prolong the presence of the applied product on the surface of the cornea. The treatment was continued for five days twice daily. Mice were euthanized by cervical dislocation 1, 3, 5 days post infection, and the eyeballs were collected and homogenized for viable bacteria count.
(§3) The eyes were examined and photographed with a dissection microscope equipped with a digital camera at 1, 3 and 5 dpi to monitor the disease progression. At 1, 3 and 5 dpi disease severity was visually graded by using an established corneal damage scale: 0, the pupil was partially or fully covered by clear or slight opacity; +1, the anterior segment was partially or fully covered by slight opacity; +2, the pupil was partially or fully covered by dense opacity; +3, the entire anterior segment was covered by dense opacity; and +4, corneal perforation^40.
(§4) Histopathology experiments were carried out at Lithuanian University of Health Sciences, Department of Veterinary Pathobiology of Veterinary Academy. One randomly chosen mice of each study group was used for histopathology experiments. Enucleated eyes were preserved in 10% formaldehyde. Eyes were paraffin-embedded, cut into 3-μm-thick sections, deparaffinised, rehydrated and used for preparation of hematoxylin/eosin stained samples.

For the next assay, the system named is P. aeruginosa PAO1. Kind of assay: murine keratitis model, invasive strain (C57BL/6 mice). The class given is in vivo. The protocol: as §1, §2, §3, §4
The next assay deals with P. aeruginosa HP6. Kind of assay: agar disc-diffusion assay. The settings on record: strain HP6; 0.3, 3 and 30 μg of protein spotted on discs on CAA agar lawn, overnight. In kind it is cell-based. The protocol: (§5) Overnight P. aeruginosa cultures grown in CAA medium were equalized till OD595=1.0 in CAA and diluted 100×. Sterile cotton swab was briefly submerged in diluted microbial suspension, removing the excess of liquid by pressing it against the container wall. The swab was used for evenly streaking bacteria on plates containing growth medium with CAA solid agar (1.5%). 6 mm diameter sterile Whatman discs were placed on soft-agar and 0.3-30 μg of chimeric pyocins were spotted to paper disks. The plates were incubated overnight at 37° C. and bacteriocin inhibition zones were observed.
(§6) Next, all 25 P. aeruginosa strains were subjected to agar disc-diffusion assay by spotting different amounts of purified pyocin S5 (0.3 μg, 3 μg and 30 μg) on bacteria lawns. Six P. aeruginosa strains were resistant to pyocin S5. Four of these six strains were pyocin S5 and immunity protein-encoding strains—PA14, PAO1, […] and NCTC 13921. Two cystic fibrosis isolates, 12-35708 and 12-29165 were also completely resistant to pyocin S5, despite the absence of S5, or S5 immunity protein coding genes. […] Turbid inhibition zones were detected when 3 μg and 30 μg of S5 were spotted on the lawn of these strains (Table 1, FIG. 3).
On the technique in general: In agar diffusion tests the substance spreads into inoculated agar from a disc or well.

The subject of assay [1] is P. aeruginosa Boston 41501 (ATCC 27853). In words: agar disc-diffusion assay. The class given is cell-based. The settings on record: strain Boston; 0.3, 3 and 30 μg of protein spotted on discs on CAA agar lawn, overnight. The procedure: as §5, §6
For the next assay, the system named is P. aeruginosa HP40. In words: agar disc-diffusion assay. The class given is cell-based. To be noted: strain HP40; 0.3, 3 and 30 μg of protein spotted on discs on CAA agar lawn, overnight. The procedure: as §5, §6
The next assay has as its system P. aeruginosa NCTC 13921. Kind of assay: agar disc-diffusion assay. The class given is cell-based. To be noted: strain NCTC 13921; 0.3, 3 and 30 μg of protein spotted on discs on CAA agar lawn, overnight. The protocol: as §5, §6
For another assay, the system named is P. aeruginosa A19. Kind of assay: agar disc-diffusion assay. The class given is cell-based. To be noted: strain A19; 0.3, 3 and 30 μg of protein spotted on discs on CAA agar lawn, overnight. The protocol: as §5, §6
The next assay has as its system P. aeruginosa Pr335. Kind of assay: agar disc-diffusion assay. To be noted: strain Pr335; 0.3, 3 and 30 μg of protein spotted on discs on CAA agar lawn, overnight. The class given is cell-based. The protocol: as §5, §6
Another assay concerns P. aeruginosa strains. Kind of assay: agar disc-diffusion assay, panel of 25 strains. The class given is cell-based. The settings on record: panel of 25 P. aeruginosa strains, in words. The protocol:
as §5, §6

[2] abbreviates: treatment started 30 min post infection.

As to `NC[C@H]1O[C@H](O[C@H]2[C@H](O)[C@@H](O[C@H]3O[C@H](CO)[C@@H](O)[C@H](N)[C@H]3O)[C@H](N)C[C@@H]2N)[C@H](N)C[C@@H]1O` [tobramycin, reference compound], the “reduction of lung burden vs vehicle” value with P. aeruginosa ATCC 27853 (200 μg/mouse IN once 1 h post infection) was determined as 2.75 log10 CFU/g. Besides, the “reduction of burden below the level of stasis (pre-treatment)” value in the assay with P. aeruginosa ATCC 27853 (200 μg/mouse IN once) amounted to 1.23 log10 CFU/g. Moreover, the “histopathology of infected treated eyes” value in the assay with P. aeruginosa ATCC 19660 (setting [2]) is “Only weak oedema in the corneal stroma”; with P. aeruginosa ATCC 19660 (treatment started 6 h post infection, 3 and 5 dpi), “slight thickening of epithelium”. Also, the “signs of disease (visual inspection, clinical score)” value in the assay on P. aeruginosa ATCC 19660 (setting [2]) is reported as “No signs of disease were observed in majority of samples”. Moreover, in the assay with P. aeruginosa ATCC 19660 (treatment started 30 min post infection, twice daily, 1, 3 or 5 dpi, 20 μg S5-PmnH or 0.14 mg tobramycin per eye), the “viable bacteria isolated from infected eyes” value is on record as “no viable P. aeruginosa were isolated”. Moreover, the viable bacteria isolated entry in the assay with P. aeruginosa ATCC 19660 (treatment started 6 h post infection, 1, 3 or 5 dpi) is listed as “no viable bacteria were isolated”. In addition, the clinical score evaluation result in the assay on P. aeruginosa ATCC 19660 (treatment started 6 h post infection, 1 and 3 dpi, two S5-PmnH-treated and one tobramycin-treated mice) is given as “Only mild disease signs were observed”; in the assay with P. aeruginosa ATCC 19660 (treatment started 6 h post infection, 5 dpi), “all corneas were completely clear”. Further, the “histological examination of infected treated eyes” value in the assay on P. aeruginosa PAO1 (1 dpi) is “signs of acute inflammation of cornea”; with P. aeruginosa PAO1 (3 dpi), “thinning of cornea epithelium and strong edema of the corneal stroma”; in the assay with P. aeruginosa PAO1 (day 5) it was “local inflammation of cornea, thinning and degeneration of cornea epithelium”. Also, the “average reduction of bacterial burden vs mock-treated” value in the assay with P. aeruginosa PAO1 (treatment started 6 h post infection, 1 dpi) came to 1.42 log 10 CFU/cornea. Also, the “mice from which no viable bacteria were isolated” value in the assay with P. aeruginosa PAO1 (treatment started 6 h post infection, 3 dpi, three mice per group) was “three”. Also, the “viable bacteria in cornea, individual mice” value in the assay with P. aeruginosa PAO1 (treatment started 6 h post infection, 5 dpi, mice with bacteria) came out at 2.8 log 10 CFU/cornea. Moreover, the “mice from which no bacteria were isolated” value in the assay with P. aeruginosa PAO1 (treatment started 6 h post infection, 5 dpi, three mice per group) is “two”.

B1: S5-Pflu794: chimeric bacteriocin SEQ ID NO: 17: pyocin S5 first segment fused to P. fluorescens Pflu794 killing domain (protein)
chain: MSNDNEVPGSMVIVAQGPDDQYAYEVPPIDSAAVAGNMFGDLIQREIYLQKNIYYPVRSIFEQGTKEKKEINKKVSDQVDGLLKQITQGKREATRQERVDVMSAVLHKMESDLEGYKKTFTKGPFIDYEKQSSLSIYEAWVKIWEKNSWEERKKYPFQQLVRDELERAVAYYKQDSLSEAVKVLRQELNKQKALKEKEDLSQLERDYRTRKANLEMKVQSELDQAGSALPPLVSPTPEQWLERATRLVTQAIADKKQLQTTNNTLIKNSPTPLEKQKAIYNGELLVDEIASLQARLVKLNAETTRRRTEKASDQANNVDIEEAILFTTTFYENLTEKYGEKVSAVAKELAESAKGKTMRSSKEALQTFEKYKDTYNGRFRSRDRREVDRALKSLDKELLSKNLAKFSKAFGSVSKIGDLTEVFIELENSIRTGDWKPLLLTLEGIGLGMAGTYLVAAVFGISATTPLGIVVFAVLMAATSAYIDDDLVKKVNKDLFGF
modifications: S5-Pflu794
Consider B1, for which the “Activity in agar disc-diffusion assay” value is reported as “* (activity detected only with 30 μg of protein)” with P. aeruginosa HP6; “* (activity detected only with 30 μg of protein)” in [1]; “* (activity detected only with 30 μg of protein)” in the assay on P. aeruginosa HP40; “* (activity detected only with 30 μg of protein)” in the assay with P. aeruginosa NCTC 13921; “*** (activity detected with 0.3 μg of protein)” in the assay on P. aeruginosa A19; “** (activity detected with 3 μg of protein)” with P. aeruginosa Pr335. The “activity spectrum / profile in agar disc diffusion assay” value in the assay on P. aeruginosa strains is reported as “only week activity on 6 tested strains”.
